From patent US6525001B1, “Substituted pyrimidine and pyridine herbicides” (Mid-American Commercialization Corporation, priority 1997, dated 2003)

How the values were obtained:
Assay in all cases: Test B pre-/postemergence
Assay type in all cases: in vivo
Design in all cases: key: 0 is no effect; 10 is complete control
[1] = test system: momingglory (Ipomoea hederacea)
Method in brief: (§1)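 Response scores run from 0, meaning no effect, to 10, meaning complete control, assigned by eye relative to controls twelve to sixteen days after spraying. Treatment was both preemergence on planted seed and postemergence on plants at the 1- to 4-leaf stage.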

[2] = test system: corn (Zea mays)
Method in brief: as §1

[3] = test system: cocklebur (Xanthium strumarium)
Method in brief: as §1

[4] = test system: wild oat (Avena fatua)
Method in brief: as §1

[5] = test system: giant foxtail (Setaria faberii)
Method in brief: as §1

[6] = test system: pigweed (Amaranthus retroflexus)
Method in brief: as §1

[7] = test system: velvetleaf (Abutilon theophrasti)
Method in brief: as §1

[8] = test system: crabgrass (Digitaria sanguinalis)
Method in brief: as §1

[9] = test system: blackgrass (Alopecurus myosuroides)
Method in brief: as §1

[10] = test system: soybean (Glycine max)
Method in brief: as §1

[11] = test system: wheat (Triticum aestivum)
Method in brief: as §1

[12] = test system: purple nutsedge (Cyperus rotundus)
Method in brief: as §1

[13] = test system: broadleaf signalgrass (Brachiaria decumbens)
Method in brief: as §1

[14] = test system: sugar beet (Beta vulgaris)
Method in brief: as §1

Cc1cnc(-c2ccc(C(F)(F)F)cc2)nc1Cn1cc(I)cn1 [Compound 12]
8: Plant response rating, Cocklebur ([3]; Rate 125 g/ha, Postemergence) | Plant response rating, Cocklebur ([3]; Rate 250 g/ha, Postemergence) | Plant response rating, Cocklebur ([3]; Rate 500 g/ha, Postemergence) | Plant response rating, Velvetleaf ([7]; Rate 250 g/ha, Postemergence) | Plant response rating, Velvetleaf ([7]; Rate 500 g/ha, Postemergence) | Plant response rating, Crabgrass ([8]; Rate 250 g/ha, Preemergence) | B. signalgrass plant response rating ([13]; Rate 125 g/ha, Preemergence) | Plant response rating, B. signalgrass ([13]; Rate 250 g/ha, Preemergence) | Plant response rating, Sugarbeets ([14]; Rate 125 g/ha, Postemergence) | Sugarbeets plant response rating ([14]; Rate 125 g/ha, Preemergence) | Plant response rating, Sugarbeets ([14]; Rate 250 g/ha, Postemergence)
2: Plant response rating, Corn ([2]; Rate 62 g/ha, Postemergence) | Plant response rating, Corn ([2]; Rate 125 g/ha, Postemergence) | Plant response rating, Corn ([2]; Rate 500 g/ha, Preemergence) | Plant response rating, Cocklebur ([3]; Rate 250 g/ha, Preemergence) | Wild oats plant response rating ([4]; Rate 125 g/ha, Preemergence) | Plant response rating, Giant foxtail ([5]; Rate 62 g/ha, Postemergence) | Plant response rating, Crabgrass ([8]; Rate 62 g/ha, Postemergence) | Plant response rating, Blackgrass ([9]; Rate 62 g/ha, Postemergence) | Soybean plant response rating ([10]; Rate 125 g/ha, Preemergence)
0: Corn plant response rating ([2]; Rate 62 g/ha, Preemergence) | Corn plant response rating ([2]; Rate 125 g/ha, Preemergence) | Plant response rating, Corn ([2]; Rate 250 g/ha, Preemergence) | Cocklebur plant response rating ([3]; Rate 62 g/ha, Preemergence) | Soybean plant response rating ([10]; Rate 62 g/ha, Preemergence) | Wheat plant response rating ([11]; Rate 62 g/ha, Preemergence) | Wheat plant response rating ([11]; Rate 125 g/ha, Preemergence) | Plant response rating, Wheat ([11]; Rate 250 g/ha, Preemergence) | Plant response rating, Wheat ([11]; Rate 500 g/ha, Preemergence) | Plant response rating, Nutsedge ([12]; Rate 62 g/ha, Postemergence) | Nutsedge plant response rating ([12]; Rate 62 g/ha, Preemergence) | Plant response rating, Nutsedge ([12]; Rate 125 g/ha, Postemergence) | Nutsedge plant response rating ([12]; Rate 125 g/ha, Preemergence) | Plant response rating, Nutsedge ([12]; Rate 250 g/ha, Postemergence) | Plant response rating, Nutsedge ([12]; Rate 250 g/ha, Preemergence) | Plant response rating, Nutsedge ([12]; Rate 500 g/ha, Postemergence) | Plant response rating, Nutsedge ([12]; Rate 500 g/ha, Preemergence)
4: Morningglory plant response rating ([1]; Rate 62 g/ha, Preemergence) | Plant response rating, Wild oats ([4]; Rate 250 g/ha, Postemergence) | Plant response rating, Wild oats ([4]; Rate 250 g/ha, Preemergence) | Plant response rating, Wild oats ([4]; Rate 500 g/ha, Preemergence) | Plant response rating, Giant foxtail ([5]; Rate 500 g/ha, Postemergence) | Velvetleaf plant response rating ([7]; Rate 125 g/ha, Preemergence) | Plant response rating, Velvetleaf ([7]; Rate 250 g/ha, Preemergence) | Plant response rating, Velvetleaf ([7]; Rate 500 g/ha, Preemergence) | Crabgrass plant response rating ([8]; Rate 62 g/ha, Preemergence) | Crabgrass plant response rating ([8]; Rate 125 g/ha, Preemergence) | Blackgrass plant response rating ([9]; Rate 125 g/ha, Preemergence) | Plant response rating, Blackgrass ([9]; Rate 250 g/ha, Postemergence) | Plant response rating, Blackgrass ([9]; Rate 500 g/ha, Postemergence) | Plant response rating, Wheat ([11]; Rate 500 g/ha, Postemergence) | Plant response rating, B. signalgrass ([13]; Rate 62 g/ha, Postemergence)
10: Plant response rating, Morningglory ([1]; Rate 250 g/ha, Preemergence) | Plant response rating, Morningglory ([1]; Rate 500 g/ha, Preemergence) | Plant response rating, Crabgrass ([8]; Rate 500 g/ha, Preemergence) | Plant response rating, Sugarbeets ([14]; Rate 250 g/ha, Preemergence) | Plant response rating, Sugarbeets ([14]; Rate 500 g/ha, Preemergence)
5: Plant response rating, Wild oats ([4]; Rate 500 g/ha, Postemergence) | Giant foxtail plant response rating ([5]; Rate 62 g/ha, Preemergence) | Plant response rating, Soybean ([10]; Rate 125 g/ha, Postemergence) | Plant response rating, Soybean ([10]; Rate 250 g/ha, Postemergence) | Plant response rating, Soybean ([10]; Rate 500 g/ha, Postemergence) | Plant response rating, B. signalgrass ([13]; Rate 125 g/ha, Postemergence)
1: Wild oats plant response rating ([4]; Rate 62 g/ha, Preemergence) | Blackgrass plant response rating ([9]; Rate 62 g/ha, Preemergence)
3: Plant response rating, Corn ([2]; Rate 250 g/ha, Postemergence) | Plant response rating, Corn ([2]; Rate 500 g/ha, Postemergence) | Plant response rating, Cocklebur ([3]; Rate 500 g/ha, Preemergence) | Plant response rating, Wild oats ([4]; Rate 62 g/ha, Postemergence) | Plant response rating, Wild oats ([4]; Rate 125 g/ha, Postemergence) | Plant response rating, Giant foxtail ([5]; Rate 125 g/ha, Postemergence) | Plant response rating, Giant foxtail ([5]; Rate 250 g/ha, Postemergence) | Velvetleaf plant response rating ([7]; Rate 62 g/ha, Preemergence) | Plant response rating, Crabgrass ([8]; Rate 125 g/ha, Postemergence) | Plant response rating, Crabgrass ([8]; Rate 250 g/ha, Postemergence) | Plant response rating, Crabgrass ([8]; Rate 500 g/ha, Postemergence) | Plant response rating, Blackgrass ([9]; Rate 125 g/ha, Postemergence) | Plant response rating, Soybean ([10]; Rate 62 g/ha, Postemergence) | Plant response rating, Soybean ([10]; Rate 250 g/ha, Preemergence) | Plant response rating, Soybean ([10]; Rate 500 g/ha, Preemergence) | Plant response rating, Wheat ([11]; Rate 62 g/ha, Postemergence) | Plant response rating, Wheat ([11]; Rate 125 g/ha, Postemergence) | Plant response rating, Wheat ([11]; Rate 250 g/ha, Postemergence) | B. signalgrass plant response rating ([13]; Rate 62 g/ha, Preemergence)
6: Morningglory plant response rating ([1]; Rate 125 g/ha, Preemergence) | Plant response rating, Blackgrass ([9]; Rate 250 g/ha, Preemergence) | Plant response rating, Blackgrass ([9]; Rate 500 g/ha, Preemergence) | Sugarbeets plant response rating ([14]; Rate 62 g/ha, Preemergence)
9: Plant response rating, Morningglory ([1]; Rate 62 g/ha, Postemergence) | Plant response rating, Morningglory ([1]; Rate 125 g/ha, Postemergence) | Plant response rating, Morningglory ([1]; Rate 250 g/ha, Postemergence) | Plant response rating, Morningglory ([1]; Rate 500 g/ha, Postemergence) | Plant response rating, Giant foxtail ([5]; Rate 250 g/ha, Preemergence) | Plant response rating, Giant foxtail ([5]; Rate 500 g/ha, Preemergence) | Plant response rating, Redroot pigweed ([6]; Rate 62 g/ha, Postemergence) | Plant response rating, Redroot pigweed ([6]; Rate 125 g/ha, Postemergence) | Redroot pigweed plant response rating ([6]; Rate 125 g/ha, Preemergence) | Plant response rating, Redroot pigweed ([6]; Rate 250 g/ha, Postemergence) | Plant response rating, Redroot pigweed ([6]; Rate 250 g/ha, Preemergence) | Plant response rating, Redroot pigweed ([6]; Rate 500 g/ha, Postemergence) | Plant response rating, Redroot pigweed ([6]; Rate 500 g/ha, Preemergence) | Plant response rating, B. signalgrass ([13]; Rate 500 g/ha, Preemergence) | Plant response rating, Sugarbeets ([14]; Rate 500 g/ha, Postemergence)
7: Giant foxtail plant response rating ([5]; Rate 125 g/ha, Preemergence) | Redroot pigweed plant response rating ([6]; Rate 62 g/ha, Preemergence) | Plant response rating, Velvetleaf ([7]; Rate 62 g/ha, Postemergence) | Plant response rating, Velvetleaf ([7]; Rate 125 g/ha, Postemergence) | Plant response rating, B. signalgrass ([13]; Rate 250 g/ha, Postemergence) | Plant response rating, B. signalgrass ([13]; Rate 500 g/ha, Postemergence) | Plant response rating, Sugarbeets ([14]; Rate 62 g/ha, Postemergence)
